Assay results from patent US10918768B2, “Human skin equivalents expressing exogenous polypeptides” (Stratatech Corporation, priority 2003, dated 2021).

Tested on: Staphylococcus carnosus
Test: antimicrobial activity assay (viable bacteria, CFU/ml)
Format: cell-based
Settings: synthetic peptide standard curve; 37° C. for 1.5 hr
Procedure: The antimicrobial activity assay employed Escherichia coli and Staphylococcus carnosus and is a modification of the protocol described by Porter and coworkers (Porter, E. M., et al., Infect Immun, 1997. 65(6): p. 2396-401). Briefly, gram-positive or gram-negative bacteria are grown overnight. The following day the test organisms are subcultured for 2.5 hr and working dilutions of 10^4 bacteria/ml for Escherichia coli or 10^5 bacteria/ml of Staphylococcus carnosus in 10 mM sodium phosphate (pH 7.4)-1% TSB are created. All the reactions mix 50 μl of experimental reagent (lysis, supernatants or purified protein) with 50 μl of bacterial suspension. These reactions are then incubated at 37° C. for 1.5 hr. The reactions are diluted 100-fold in 10 mM sodium phosphate (pH 7.4)-1% TSB and plated on TSB plates using a spiral plater (Spiral Biotech, Norwood, Mass.). The plates are then incubated for 12 to 16 hr at 37° C. Colonies on these plates are counted and the number of viable bacteria is determined and expressed as colony forming units per milliliter (CFU/ml).
This example describes the development of an assay to detect LL-37 antimicrobial activity. […] A standard curve for the antimicrobial activity of LL-37 was determined for gram-positive bacteria, S. carnosus using this synthetic peptide.

SMILES: CC[C@H](C)[C@H](NC(=O)[C@H](CCCCN)NC(=O)[C@H](CCC(=O)O)NC(=O)[C@H](CCCCN)NC(=O)[C@H](CO)NC(=O)[C@H](CCCCN)NC(=O)[C@H](CCCNC(=N)N)NC(=O)[C@H](Cc1ccccc1)NC(=O)[C@H](Cc1ccccc1)NC(=O)[C@H](CC(=O)O)NC(=O)CNC(=O)[C@H](CC(C)C)NC(=O)[C@@H](N)CC(C)C)C(=O)NCC(=O)N[C@@H](CCCCN)C(=O)N[C@@H](CCC(=O)O)C(=O)N[C@@H](Cc1ccccc1)C(=O)N[C@@H](CCCCN)C(=O)N[C@@H](CCCNC(=N)N)C(=O)N[C@H](C(=O)N[C@H](C(=O)N[C@@H](CCC(N)=O)C(=O)N[C@@H](CCCNC(=N)N)C(=O)N[C@H](C(=O)N[C@@H](CCCCN)C(=O)N[C@@H](CC(=O)O)C(=O)N[C@@H](Cc1ccccc1)C(=O)N[C@@H](CC(C)C)C(=O)N[C@@H](CCCNC(=N)N)C(=O)N[C@@H](CC(N)=O)C(=O)N[C@@H](CC(C)C)C(=O)N[C@H](C(=O)N1CCC[C@H]1C(=O)N[C@@H](CCCNC(=N)N)C(=O)N[C@H](C(=O)N[C@@H](CCC(=O)O)C(=O)N[C@@H](CO)C(=O)O)[C@@H](C)O)C(C)C)[C@@H](C)CC)C(C)C)[C@@H](C)CC [LL-37]
- concentration necessary to kill 50% (LC50) of S. carnosus: 0.9 µg/mL
